The structures appear in SMILES notation. Like-named read-outs stand apart in the source and are kept apart here. Where only a bound is given, the exact number is not on record here.

Data on twelve molecules can be found in patent US9499550B2 (BRISTOL-MYERS SQUIBB COMPANY, priority 2012, dated 2016).

The subject of test [1] is HCV genotype 1b (Con1) replicon in HUH-7 cells. The test is described as follows: HCV replicon luciferase reporter assay, genotype 1b. It is filed as cell-based. The conditions noted are these: Hepatitis C virus, Huh-7, 72 h, HCV genotype 1b replicon luciferase, 3 days incubation. The procedure, abridged: (§1)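 Replicon inhibition for both genotypes was measured as Renilla luciferase signal (EnduRen, 7.5 μM final, 2 h) after 3-day, 37° C exposure of replicon-bearing HUH-7 cells in 4% FCS DMEM, 0.5% DMSO. The 1b construct carries S1179I; the 1a H77 construct carries P1496L and S2204I. Twenty-point, 3-fold dilutions were fitted four-parametrically for EC50, and CC50 was taken from multiplexed Cell Titer-Blue.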
(In general: A replicon is a self-replicating genome or part of one, used to study replication in cells.)

Test [2] relates to HCV genotype 1a (H77 strain) replicon in HUH-7 cells. The test is described as follows: HCV replicon luciferase reporter assay, genotype 1a. The format is cell-based. The conditions noted are these: Hepatitis C virus, Huh-7, 72 h, HCV genotype 1a replicon luciferase, 3 days incubation. In short, it runs like this:
as §1

With `CCCOc1cnc(O[C@@H]2C[C@H]3C(=O)N[C@]4(C(=O)NS(=O)(=O)C5(C)CC5)C[C@H]4/C=C\CC[C@@H](C)C[C@@H](C)[C@H](NC(=O)O[C@H](C)C(F)(F)F)C(=O)N3C2)c2ccccc12` [Compound 5085, (R)-1,1,1-trifluoropropan-2-yl ((2R,6S,7R,9R,13aS,14aR,16aS,Z)-7,9-dimethyl-14a-(((1-methylcyclopropyl)sulfonyl)carbamoyl)-5,16-dioxo-2-((4-propoxyisoquinolin-1-yl)oxy)-1,2,3,5,6,7,8,9,10,11,13a,14,14a,15,16,16a-hexadecahydrocyclopropa[e]pyrrolo[1,2-a][1,4]diazacyclopentadecin-6-yl)carbamate], the EC50 (in general, the concentration that produces a half-maximal response) in test [1] (read-out: LE_1b (EC50, range)) was in the range of 0.00482 to 0.103 µM; in test [2] (read-out: LE_1a (EC50, range)), 0.00482 to 0.103 µM.
In the case of `CCCOc1cnc(O[C@@H]2C[C@H]3C(=O)N[C@]4(C(=O)NS(=O)(=O)C5(C)CC5)C[C@H]4/C=C\CC[C@H](C)C[C@@H](C)[C@H](NC(=O)NC(C)(C)C(F)(F)F)C(=O)N3C2)c2ccccc12` [Compound 5086, (2R,6S,7R,9S,13aS,14aR,16aS,Z)-7,9-dimethyl-N-((1-methylcyclopropyl)sulfonyl)-5,16-dioxo-2-((4-propoxyisoquinolin-1-yl)oxy)-6-(3-(1,1,1-trifluoro-2-methylpropan-2-yl)ureido)-1,2,3,5,6,7,8,9,10,11,13a,14,14a,15,16,16a-hexadecahydrocyclopropa[e]pyrrolo[1,2-a][1,4]diazacyclopentadecine-14a-carboxamide], the EC50 in test [1] (read-out: LE_1b (EC50)) was 0.155 µM; in test [1] (read-out: LE_1b (EC50, range)) it was greater than 0.0874 µM; in test [2] (read-out: LE_1a (EC50)), 0.411 µM; in test [2] (read-out: LE_1a (EC50, range)) it was greater than 0.0874 µM.
As for `CCCOc1cnc(O[C@@H]2C[C@H]3C(=O)N[C@]4(C(=O)NS(=O)(=O)C5(C)CC5)C[C@H]4/C=C\CC[C@@H](C)C[C@@H](C)[C@H](NC(=O)NC(C)(C)C(F)(F)F)C(=O)N3C2)c2ccccc12` [Compound 5087, (2R,6S,7R,9R,13aS,14aR,16aS,Z)-7,9-dimethyl-N-((1-methylcyclopropyl)sulfonyl)-5,16-dioxo-2-((4-propoxyisoquinolin-1-yl)oxy)-6-(3-(1,1,1-trifluoro-2-methylpropan-2-yl)ureido)-1,2,3,5,6,7,8,9,10,11,13a,14,14a,15,16,16a-hexadecahydrocyclopropa[e]pyrrolo[1,2-a][1,4]diazacyclopentadecine-14a-carboxamide], the EC50 in test [1] (read-out: LE_1b (EC50, range)) was less than 0.00546 µM; in test [2] (read-out: LE_1a (EC50, range)), less than 0.00546 µM.
On to `CCCOc1cnc(O[C@@H]2C[C@H]3C(=O)N[C@]4(C(=O)NS(=O)(=O)C5CC5)C[C@H]4/C=C\CC[C@H](C)C[C@@H](C)[C@H](NC(=O)OC(C)(C)C)C(=O)N3C2)c2ccccc12` [Compound 5088, tert-butyl ((2R,6S,7R,9S,13aS,14aR,16aS,Z)-14a-((cyclopropylsulfonyl)carbamoyl)-7,9-dimethyl-5,16-dioxo-2-((4-propoxyisoquinolin-1-yl)oxy)-1,2,3,5,6,7,8,9,10,11,13a,14,14a,15,16,16a-hexadecahydrocyclopropa[e]pyrrolo[1,2-a][1,4]diazacyclopentadecin-6-yl)carbamate], for which the EC50 in test [1] (read-out: LE_1b (EC50)) is 0.0203 µM; in test [1] (read-out: LE_1b (EC50, range)), 0.00482 to 0.103 µM; in test [2] (read-out: LE_1a (EC50)), 0.103 µM; in test [2] (read-out: LE_1a (EC50, range)), greater than 0.0874 µM.
Regarding `CCCOc1cnc(O[C@@H]2C[C@H]3C(=O)N[C@]4(C(=O)NS(=O)(=O)C5CC5)C[C@H]4/C=C\CC[C@@H](C)C[C@@H](C)[C@H](NC(=O)OC(C)(C)C)C(=O)N3C2)c2ccccc12` [Compound 5089, tert-butyl ((2R,6S,7R,9R,13aS,14aR,16aS,Z)-14a-((cyclopropylsulfonyl)carbamoyl)-7,9-dimethyl-5,16-dioxo-2-((4-propoxyisoquinolin-1-yl)oxy)-1,2,3,5,6,7,8,9,10,11,13a,14,14a,15,16,16a-hexadecahydrocyclopropa[e]pyrrolo[1,2-a][1,4]diazacyclopentadecin-6-yl)carbamate], the EC50 in test [1] (read-out: LE_1b (EC50, range)) is less than 0.00546 µM; in test [2] (read-out: LE_1a (EC50, range)), less than 0.00546 µM.
Take `CCCOc1cnc(O[C@@H]2C[C@H]3C(=O)N[C@]4(C(=O)NS(=O)(=O)C5CC5)C[C@H]4/C=C\CC[C@H](C)C[C@@H](C)[C@H](NC(=O)OC(C)(C)C(F)(F)F)C(=O)N3C2)c2ccccc12` [Compound 5090, 1,1,1-trifluoro-2-methylpropan-2-yl((2R,6S,7R,9S,13aS,14aR,16aS,Z)-14a-((cyclopropylsulfonyl)carbamoyl)-7,9-dimethyl-5,16-dioxo-2-((4-propoxyisoquinolin-1-yl)oxy)-1,2,3,5,6,7,8,9,10,11,13a,14,14a,15,16,16a-hexadecahydrocyclopropa[e]pyrrolo[1,2-a][1,4]diazacyclopentadecin-6-yl)carbamate]: the EC50 in test [1] (read-out: LE_1b (EC50)) was 0.0874 µM; in test [1] (read-out: LE_1b (EC50, range)), 0.00482 to 0.103 µM; in test [2] (read-out: LE_1a (EC50)), 0.521 µM; in test [2] (read-out: LE_1a (EC50, range)), greater than 0.0874 µM.
As for `CCCOc1cnc(O[C@@H]2C[C@H]3C(=O)N[C@]4(C(=O)NS(=O)(=O)C5CC5)C[C@H]4/C=C\CC[C@H](C)C[C@@H](C)[C@H](NC(=O)O[C@@H]4C[C@@H]5C[C@@H]5C4)C(=O)N3C2)c2ccccc12` [Compound 5092, (1R,3r,5S)-bicyclo[3.1.0]hexan-3-yl((2R,6S,7R,9S,13aS,14aR,16aS,Z)-14a-((cyclopropylsulfonyl)carbamoyl)-7,9-dimethyl-5,16-dioxo-2-((4-propoxyisoquinolin-1-yl)oxy)-1,2,3,5,6,7,8,9,10,11,13a,14,14a,15,16,16a-hexadecahydrocyclopropa[e]pyrrolo[1,2-a][1,4]diazacyclopentadecin-6-yl)carbamate], the EC50 was 0.00482 to 0.103 µM in test [1] (read-out: LE_1b (EC50, range)) and greater than 0.0874 µM in test [2] (read-out: LE_1a (EC50, range)).
For `CCCOc1cnc(O[C@@H]2C[C@H]3C(=O)N[C@]4(C(=O)NS(=O)(=O)C5CC5)C[C@H]4/C=C\CC[C@@H](C)C[C@@H](C)[C@H](NC(=O)O[C@@H]4C[C@@H]5C[C@@H]5C4)C(=O)N3C2)c2ccccc12` [Compound 5093, (1R,3r,5S)-bicyclo[3.1.0]hexan-3-yl((2R,6S,7R,9R,13aS,14aR,16aS,Z)-14a-((cyclopropylsulfonyl)carbamoyl)-7,9-dimethyl-5,16-dioxo-2-((4-propoxyisoquinolin-1-yl)oxy)-1,2,3,5,6,7,8,9,10,11,13a,14,14a,15,16,16a-hexadecahydrocyclopropa[e]pyrrolo[1,2-a][1,4]diazacyclopentadecin-6-yl)carbamate], the EC50 is less than 0.00546 µM in test [1] (read-out: LE_1b (EC50, range)) and 0.00482 to 0.103 µM in test [2] (read-out: LE_1a (EC50, range)).
The corresponding values for `CCCOc1cnc(O[C@@H]2C[C@H]3C(=O)N[C@]4(C(=O)NS(=O)(=O)C5CC5)C[C@H]4/C=C\CC[C@H](C)C[C@@H](C)[C@H](NC(=O)O[C@H](C)C(F)(F)F)C(=O)N3C2)c2ccccc12` [Compound 5094, (R)-1,1,1-trifluoropropan-2-yl((2R,6S,7R,9S,13aS,14aR,16aS,Z)-14a-((cyclopropylsulfonyl)carbamoyl)-7,9-dimethyl-5,16-dioxo-2-((4-propoxyisoquinolin-1-yl)oxy)-1,2,3,5,6,7,8,9,10,11,13a,14,14a,15,16,16a-hexadecahydrocyclopropa[e]pyrrolo[1,2-a][1,4]diazacyclopentadecin-6-yl)carbamate] are greater than 0.0874 µM and greater than 0.0874 µM.
With `CCCOc1cnc(O[C@@H]2C[C@H]3C(=O)N[C@]4(C(=O)NS(=O)(=O)C5CC5)C[C@H]4/C=C\CC[C@@H](C)C[C@@H](C)[C@H](NC(=O)O[C@H](C)C(F)(F)F)C(=O)N3C2)c2ccccc12` [Compound 5095, (R)-1,1,1-trifluoropropan-2-yl((2R,6S,7R,9R,13aS,14aR,16aS,Z)-14a-((cyclopropylsulfonyl)carbamoyl)-7,9-dimethyl-5,16-dioxo-2-((4-propoxyisoquinolin-1-yl)oxy)-1,2,3,5,6,7,8,9,10,11,13a,14,14a,15,16,16a-hexadecahydrocyclopropa[e]pyrrolo[1,2-a][1,4]diazacyclopentadecin-6-yl)carbamate], the EC50 in test [1] (read-out: LE_1b (EC50, range)) lay within 0.00482 to 0.103 µM; in test [2] (read-out: LE_1a (EC50, range)), 0.00482 to 0.103 µM.
Consider `CCCOc1cnc(O[C@@H]2C[C@H]3C(=O)N[C@]4(C(=O)NS(=O)(=O)C5CC5)C[C@H]4/C=C\CC[C@H](C)C[C@@H](C)[C@H](NC(=O)OCC4(C)CC4)C(=O)N3C2)c2ccccc12` [Compound 5096, (1-methylcyclopropyl)methyl ((2R,6S,7R,9S,13aS,14aR,16aS,Z)-14a-((cyclopropylsulfonyl)carbamoyl)-7,9-dimethyl-5,16-dioxo-2-((4-propoxyisoquinolin-1-yl)oxy)-1,2,3,5,6,7,8,9,10,11,13a,14,14a,15,16,16a-hexadecahydrocyclopropa[e]pyrrolo[1,2-a][1,4]diazacyclopentadecin-6-yl)carbamate], for which the EC50 in test [1] (read-out: LE_1b (EC50, range)) is 0.00482 to 0.103 µM; in test [2] (read-out: LE_1a (EC50, range)) it was greater than 0.0874 µM.
Turning to `CCCOc1cnc(O[C@@H]2C[C@H]3C(=O)N[C@]4(C(=O)NS(=O)(=O)C5CC5)C[C@H]4/C=C\CC[C@@H](C)C[C@@H](C)[C@H](NC(=O)OCC4(C)CC4)C(=O)N3C2)c2ccccc12` [Compound 5097, (1-methylcyclopropyl)methyl ((2R,6S,7R,9R,13aS,14aR,16aS,Z)-14a-((cyclopropylsulfonyl)carbamoyl)-7,9-dimethyl-5,16-dioxo-2-((4-propoxyisoquinolin-1-yl)oxy)-1,2,3,5,6,7,8,9,10,11,13a,14,14a,15,16,16a-hexadecahydrocyclopropa[e]pyrrolo[1,2-a][1,4]diazacyclopentadecin-6-yl)carbamate], the EC50 in test [1] (read-out: LE_1b (EC50, range)) is less than 0.00546 µM; in test [2] (read-out: LE_1a (EC50, range)) it was less than 0.00546 µM.
